Data reported in ChEMBL document CHEMBL1201862, “PubChem BioAssay data set” (2004).
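Method: 48-hour compound exposure of cells in 96-well plates, five concentrations, linear interpolation of endpoints. GI50 is the concentration that inhibits growth by half.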 Active and inactive are the calls of the source. Cut-off read from the data, not from the text of the source: active = GI50 up to about 1.1 µM and inactive = higher.

Columns and labels:
Test in all cases: inhibition of tumour cell growth, NCI panel, 48 h
OVCAR-8 = tested on: OVCAR-8
SNB-75 = tested on: SNB-75
SK-MEL-2 = tested on: SK-MEL-2
LOX IMVI = tested on: LOX IMVI
HCT-15 = tested on: HCT-15
OVCAR-5 = tested on: OVCAR-5
K562 = tested on: K562
SN12C = tested on: SN12C
SW-620 = tested on: SW-620
DMS-114 = tested on: DMS-114
EKVX = tested on: EKVX
SK-OV-3 = tested on: SK-OV-3
HT-29 = tested on: HT-29
XF498 = tested on: XF498
NCI-H226 = tested on: NCI-H226

| SMILES | GI50 (OVCAR-8) | GI50 (SNB-75) | GI50 (SK-MEL-2) | GI50 (LOX IMVI) | GI50 (HCT-15) | GI50 (OVCAR-5) | GI50 (K562) | GI50 (SN12C) | GI50 (SW-620) | GI50 (DMS-114) | GI50 (EKVX) | GI50 (SK-OV-3) | GI50 (HT-29) | GI50 (XF498) | GI50 (NCI-H226) |
| --- | --- | --- | --- | --- | --- | --- | --- | --- | --- | --- | --- | --- | --- | --- | --- |
| O=S(=O)(c1ccccc1)C1(C2(S(=O)(=O)c3ccccc3)CCN=N2)CCN=N1 (stereo not given) | > 100 µM (inactive) | > 100 µM (inactive) | > 100 µM (inactive) | > 100 µM (inactive) | > 100 µM | > 100 µM (inactive) | > 100 µM (inactive) | > 100 µM (inactive) | > 100 µM (inactive) | > 100 µM (inactive) | > 100 µM (inactive) | > 100 µM (inactive) | > 100 µM (inactive) | > 100 µM (inactive) | > 100 µM (inactive) |
| CC(C)(C)c1cc(C(OCCl)(C(F)(F)F)C(F)(F)F)c2c(c1)C(C(F)(F)F)(C(F)(F)F)OC21c2ccccc2C(=O)c2ccccc21 | > 100 µM (inactive) | > 100 µM (inactive) | > 100 µM (inactive) | – | > 100 µM | > 100 µM (inactive) | > 100 µM (inactive) | > 100 µM (inactive) | > 100 µM (inactive) | > 100 µM (inactive) | > 100 µM (inactive) | – | > 100 µM (inactive) | 34 µM (inactive) | > 100 µM (inactive) |
| COc1ccc2nc3cc(Cl)ccc3c(Sc3ccc([N+](=O)[O-])cc3)c2c1 | > 10 µM (inactive) | 34.1 µM (inactive) | > 10 µM (inactive) | > 10 µM (inactive) | > 10 µM | > 10 µM (inactive) | > 10 µM (inactive) | > 10 µM (inactive) | > 10 µM (inactive) | > 10 µM (inactive) | > 10 µM (inactive) | > 10 µM (inactive) | > 100 µM (inactive) | > 10 µM (inactive) | > 10 µM (inactive) |
| Clc1ncnc2c1ncn2CCCCCCCCCCCCn1cnc2c(Cl)ncnc21 | 11.1 µM (inactive) | – | 13.4 µM (inactive) | 1.43 µM (inactive) | 13.1 µM | 27.7 µM (inactive) | 1.15 µM (inactive) | 18.6 µM (inactive) | 22.4 µM (inactive) | 1.67 µM (inactive) | 16.7 µM (inactive) | 16.4 µM (inactive) | 9.82 µM (inactive) | 9.38 µM (inactive) | 11.7 µM (inactive) |
| O=C(CCCCCCCCCCc1ccccc1)c1c(O)cccc1O | 20.7 µM (inactive) | 29 µM (inactive) | 15.8 µM (inactive) | 27.2 µM (inactive) | 20 µM | 21.2 µM (inactive) | 21.4 µM (inactive) | 18.7 µM (inactive) | 19.5 µM (inactive) | 20.7 µM (inactive) | 21.3 µM (inactive) | 44.8 µM (inactive) | 33 µM (inactive) | 20.2 µM (inactive) | 21.2 µM (inactive) |
| Cc1cc(C)nc(NS(=O)(=O)c2ccc(Nc3c4ccc(Cl)cc4nc4c(C(=O)Nc5ccc(S(=O)(=O)N=C(N)N)cc5)cccc34)cc2)n1 | > 100 µM (inactive) | 57.7 µM (inactive) | – | 49.9 µM (inactive) | > 100 µM | > 100 µM (inactive) | 73.5 µM (inactive) | > 100 µM (inactive) | – | 41.7 µM (inactive) | > 100 µM (inactive) | > 100 µM (inactive) | > 100 µM (inactive) | > 100 µM (inactive) | – |
| CCOC(=O)/C(=C\c1ccc[nH]1)C(=O)c1ccccc1 | > 100 µM (inactive) | 13.9 µM (inactive) | 89.9 µM (inactive) | 91.2 µM (inactive) | > 100 µM | > 100 µM (inactive) | 35.2 µM (inactive) | > 100 µM (inactive) | 52.7 µM (inactive) | 34.3 µM (inactive) | > 100 µM (inactive) | > 100 µM (inactive) | > 100 µM (inactive) | > 100 µM (inactive) | > 100 µM (inactive) |
| Cc1nc(-c2nc(C)c(C(=O)/C=C/c3ccc([N+](=O)[O-])cc3)s2)sc1C(=O)/C=C/c1ccc([N+](=O)[O-])cc1 | > 100 µM (inactive) | > 100 µM (inactive) | > 100 µM (inactive) | > 100 µM (inactive) | > 100 µM | > 100 µM (inactive) | > 100 µM (inactive) | > 100 µM (inactive) | > 100 µM (inactive) | > 100 µM (inactive) | > 100 µM (inactive) | > 100 µM (inactive) | > 100 µM (inactive) | – | > 100 µM (inactive) |
| O=C(Cc1nc2ccccc2c(=O)n1-c1c(Cl)cccc1Cl)c1ccncc1 | 29.7 µM (inactive) | 25.1 µM (inactive) | 21.1 µM (inactive) | > 10 µM (inactive) | 24.7 µM | – | 26.7 µM (inactive) | 85.9 µM (inactive) | 36.6 µM (inactive) | 25.2 µM (inactive) | 61.5 µM (inactive) | 53.1 µM (inactive) | 19.6 µM (inactive) | – | > 10 µM (inactive) |
| C[N+](C)(C)CC1CCC/C1=N\OC(=O)c1ccccc1 (stereo not given) | > 100 µM (inactive) | > 100 µM (inactive) | > 100 µM (inactive) | > 100 µM (inactive) | > 100 µM | – | > 100 µM (inactive) | > 100 µM (inactive) | > 100 µM (inactive) | > 100 µM (inactive) | > 100 µM (inactive) | > 100 µM (inactive) | > 100 µM (inactive) | > 100 µM (inactive) | > 100 µM (inactive) |
